Source: publication PMC11578313, “Miniaturized Modular Click Chemistry‐enabled Rapid Discovery of Unique SARS‐CoV‐2 M^pro Inhibitors With Robust Potency and Drug‐like Profile” (Advanced Science, 2024)
Like-named read-outs stand apart in the source and are kept apart here.

Legend:
Wild‐type rgSARS‐CoV‐2 = assay: microbe, parasite or virus in culture; type: cell-based, SARS‐CoV‐2
[1] = system: rgSARS‐CoV‐2‐M^pro/L50F+E166V; type: cell-based, SARS‐CoV‐2; conditions: read-out: EC50 ± SD, rgSARS‐CoV‐2‐M^pro/L50F+E166V
[2] = system: rgSARS‐CoV‐2‐M^pro/T21I+E166V; type: cell-based, SARS‐CoV‐2; conditions: read-out: EC50 ± SD, rgSARS‐CoV‐2‐M^pro/T21I +E166V
[3] = system: SARS‐CoV‐2 (hCoV‐19/Korea/KCDC06/2020, wild type); assay: microbe, parasite or virus in culture; type: cell-based
[4] = Severe acute respiratory syndrome coronavirus 2, Calu-3; read-out: EC50 ± SD, Wild‐type rgSARS‐CoV‐2

Row | SMILES | EC50 (Wild‐type rgSARS‐CoV‐2; Severe acute respiratory syndrome coronavirus 2, Calu-3, read-out: EC50 ± SD, Wild‐type rgSARS‐CoV‐2) [nM] | EC50 [1] [nM] | EC50 [2] [nM] | EC50 (Wild‐type rgSARS‐CoV‐2; [4]) [nM] | EC50 ([3]; Severe acute respiratory syndrome coronavirus 2, Calu-3, Gamma, Delta, and Omicron, read-out: EC50 against several SARS‐CoV‐2 variants) [nM] | EC50 ([3]; Severe acute respiratory syndrome coronavirus 2, wild‐type, gamma, delta, and omicron, Calu‐3, read-out: EC50 against the original strain and its circulating variants) [nM]
1 | CC(C)(C)[C@H](NC(=O)C(F)(F)F)C(=O)N1C[C@H]2[C@@H]([C@H]1C(=O)N[C@H](C#N)C[C@@H]1CCNC1=O)C2(C)C [Nirmatrelvir, reference compound] | 2770 ± 33 | > 100000 | > 100000 | – | – | –
2 | Cc1cncc(C(=O)N2C[C@H]3CC[C@@H](C2)N3C(c2cccc(F)c2)c2cccc(F)c2)c1 [AA‐625, reference compound] | – | 5710 ± 664 | 3410 ± 821 | 779 ± 173 | – | –
3 | Cc1cncc(C(=O)N2C[C@H]3CC[C@@H](C2)N3C(c2cccc(F)c2)c2cn(CCc3ccsc3)nn2)c1 (some centres unmarked) [Compound C5N17] | – | 966 ± 40 | 1470 ± 123 | 441 ± 32 | – | –
4 | Cc1cncc(C(=O)N2C[C@H]3CC[C@@H](C2)N3[C@H](c2cccc(F)c2)c2cn(CCc3ccsc3)nn2)c1 [Compound C5N17B] | – | 150 ± 19 | 260 ± 29 | < 46 | 130 to 260 | 119 to 260
